Values joined by “and” are separate entries in the source; they are usually repeats but may differ in a detail not shown here. Equal values may be shown once.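 Values below derive from 48-hour exposures of cells grown in 96-well plates, with endpoints linearly interpolated between the two concentrations bracketing the appropriate inhibition level. The concentration for 50% growth inhibition is given as GI50. The concentration for full growth arrest is given as TGI.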

The results in this text go back to PubChem BioAssay (NCI).

Among the test systems are 786-0 renal; BT-549 breast; EKVX NSCLC; HL-60(TB) leukemia; HOP-62 NSCLC; KM12 colon; NCI-H460 lung; NCI-H522 lung; SK-MEL-5 melanoma; SR leukemia.
Holding throughout (assay): NCI tumour cell line growth inhibition, 48 h

As to `Cc1ccc(C(=O)N/N=C/c2cccc(Oc3ccccc3)c2)cn1`, the GI50 is 29.1 µM with 786-0 renal; 5.37 µM in the experiment with BT-549 breast; 8.36 µM in the experiment on EKVX NSCLC; 1.8 µM with HL-60(TB) leukemia; 60.2 µM in the experiment with HOP-62 NSCLC; 3.69 µM in the experiment on KM12 colon. Besides, the GI50 is 4.05 µM with NCI-H460 lung, 7.38 µM with NCI-H522 lung, 5.21 µM with SK-MEL-5 melanoma and 1.01 µM with SR leukemia. The TGI in the experiment on 786-0 renal was > 100 µM; with BT-549 breast, > 55.6 µM; in the experiment on EKVX NSCLC, > 100 µM; in the experiment on HL-60(TB) leukemia, 5.77 µM; in the experiment on HOP-62 NSCLC, > 100 µM; in the experiment with KM12 colon, > 100 µM. Moreover, the TGI with NCI-H460 lung was > 100 µM; with NCI-H522 lung, > 69.8 µM; in the experiment with SK-MEL-5 melanoma it was > 100 µM; with SR leukemia it was 20.7 µM.

For `NC(=O)C1=C(c2ccccc2)c2ccccc2C1=O`, the TGI amounted to 30.5 µM in the experiment with 786-0 renal; 30.9 µM in the experiment on BT-549 breast; 33.3 µM in the experiment on EKVX NSCLC; 18.1 µM in the experiment on HL-60(TB) leukemia; 28.3 µM in the experiment on HOP-62 NSCLC; 30.9 µM in the experiment with KM12 colon. Besides, the TGI was 33.4 µM in the experiment on NCI-H460 lung, 45.1 µM in the experiment on NCI-H522 lung, 33.6 µM in the experiment on SK-MEL-5 melanoma and 26.3 µM in the experiment on SR leukemia.

For `Cn1c(=O)c2[nH]c(COCc3nc4c([nH]3)c(=O)n(C)c(=O)n4C)nc2n(C)c1=O`, the TGI in the experiment on 786-0 renal, in the experiment with BT-549 breast, with EKVX NSCLC, in the experiment on HL-60(TB) leukemia, in the experiment with HOP-62 NSCLC and in the experiment with KM12 colon was > 100 µM each time. Further, the TGI in the experiment with NCI-H460 lung, in the experiment with NCI-H522 lung, with SK-MEL-5 melanoma and in the experiment on SR leukemia was > 100 µM in each case.

For `CC1(C)N=C(N)N=C(N)N1c1cccc(CCCCc2ccc(S(=O)(=O)F)cc2Cl)c1`, the GI50 is 3.28 µM with 786-0 renal; 4.31 µM with BT-549 breast; 2.02 µM in the experiment with EKVX NSCLC; 7.02 µM with HL-60(TB) leukemia; 5.72 µM in the experiment on HOP-62 NSCLC; 1.72 µM with KM12 colon. In addition, the GI50 with NCI-H460 lung is 0.465 µM; in the experiment on NCI-H522 lung it was 3.6 µM; with SK-MEL-5 melanoma it was 1.87 µM; in the experiment on SR leukemia it was 0.456 µM. Also, the TGI in the experiment on 786-0 renal is 24.5 µM; in the experiment with BT-549 breast, > 46.3 µM; in the experiment on EKVX NSCLC, > 67.5 µM; with HL-60(TB) leukemia, 55.8 µM; in the experiment on HOP-62 NSCLC, 20.7 µM; with KM12 colon, 15.7 µM. Also, the TGI was > 38.6 µM with NCI-H460 lung, 20 µM in the experiment on NCI-H522 lung, 16.4 µM in the experiment with SK-MEL-5 melanoma and > 49.5 µM in the experiment on SR leukemia.

With `Cc1ccc(NC2=C(Sc3ccc(Cl)cc3)C(=O)N(Cc3ccccc3)C2=O)cc1Cl`, the GI50 was 10.3 µM in the experiment on 786-0 renal; 10.4 µM with BT-549 breast; 26.7 µM in the experiment with EKVX NSCLC; 11.9 µM in the experiment with HL-60(TB) leukemia; 3.14 µM with HOP-62 NSCLC; 31.1 µM with KM12 colon. The GI50 with NCI-H460 lung is 5.75 µM; in the experiment with NCI-H522 lung, 3.62 µM; in the experiment on SK-MEL-5 melanoma it was 5.84 µM; in the experiment on SR leukemia, 2.86 µM. Moreover, the TGI is 22.4 µM with 786-0 renal; 24 µM with BT-549 breast; > 100 µM with EKVX NSCLC; 27.6 µM with HL-60(TB) leukemia; 10.4 µM with HOP-62 NSCLC; > 100 µM with KM12 colon. The TGI in the experiment on NCI-H460 lung is 39.8 µM; with NCI-H522 lung, 14.9 µM; with SK-MEL-5 melanoma, 20.3 µM; in the experiment on SR leukemia, 8.12 µM.

For `Cc1ccc(NS(=O)(=O)c2cc(C)ccc2C)cc1`, the GI50 with 786-0 renal was 10.6 µM; in the experiment on BT-549 breast it was 9.62 µM; with EKVX NSCLC, 11.8 µM; with HL-60(TB) leukemia, 3.65 µM; in the experiment on HOP-62 NSCLC it was 4.49 µM; in the experiment on KM12 colon it was 1.73 µM. The GI50 in the experiment with NCI-H460 lung is 3.4 µM; in the experiment with NCI-H522 lung, 2.02 µM; in the experiment with SK-MEL-5 melanoma, 2.79 µM; in the experiment with SR leukemia it was 1.18 µM. The TGI is 31.4 µM with 786-0 renal; 27.4 µM in the experiment on BT-549 breast; 92.7 µM with EKVX NSCLC; 27 µM in the experiment with HL-60(TB) leukemia; > 100 µM in the experiment on HOP-62 NSCLC; 16.5 µM in the experiment on KM12 colon. The TGI with NCI-H460 lung was 13.5 µM; in the experiment on NCI-H522 lung, 7.61 µM; with SK-MEL-5 melanoma, 13.8 µM; in the experiment with SR leukemia, 16.5 µM.

Regarding `CN(C)CCCn1c2c3ccccc3ccc2c2oc(=O)c3ccccc3c21`, the TGI with 786-0 renal was 5.54 µM; in the experiment with BT-549 breast, > 57.8 µM; in the experiment with EKVX NSCLC, 60.7 µM; in the experiment on HL-60(TB) leukemia it was 93.9 µM; in the experiment with HOP-62 NSCLC, 15.4 µM; in the experiment on KM12 colon, 10.3 µM. In addition, the TGI with NCI-H460 lung came out at 6.64 µM; with NCI-H522 lung, 10.6 µM; in the experiment with SK-MEL-5 melanoma, 23.6 µM; with SR leukemia, 5.56 µM.

As to `Cc1c(CN2CCC(Nc3ncnc4sc(CC(F)(F)F)cc34)CC2)ccc2c1cc(C#N)n2Cc1cn[nH]c1`, the GI50 is 4.92 µM and 4.44 µM with 786-0 renal; 2.72 µM and 3.16 µM in the experiment with BT-549 breast; 1.92 µM and 3.08 µM with EKVX NSCLC; 2.74 µM and 2.83 µM in the experiment with HL-60(TB) leukemia; 3.38 µM and 5.46 µM with HOP-62 NSCLC; 5.36 µM and 3.22 µM with KM12 colon. In addition, the GI50 in the experiment with NCI-H460 lung was 2.19 µM and 2.8 µM; in the experiment on NCI-H522 lung, 3.77 µM and 5.24 µM; in the experiment with SK-MEL-5 melanoma it was 0.967 µM and 0.958 µM; with SR leukemia, 0.571 µM and 1.36 µM. Further, the TGI in the experiment on 786-0 renal was 21.9 µM; in the experiment on BT-549 breast, 17.5 µM and > 27.4 µM; in the experiment on EKVX NSCLC, 21.2 µM and > 43.4 µM; in the experiment with HL-60(TB) leukemia, 8.87 µM; in the experiment on HOP-62 NSCLC it was 22 µM and > 44.6 µM; in the experiment on KM12 colon it was 22.2 µM. For the same compound, the TGI was 7.31 µM with NCI-H460 lung; 23.2 µM and > 27.5 µM in the experiment with NCI-H522 lung; 2.61 µM and 3.02 µM with SK-MEL-5 melanoma; 3.68 µM and 5.19 µM with SR leukemia.

For `CCOC(=O)[C@@H](C)C[C@H](Cc1ccccc1)NC(=O)c1csc([C@@H](C[C@H](C(C)C)N(C)C(=O)[C@H](CCC(C)C)NC(=O)[C@H]2CCCCN2C)OC(C)=O)n1`, the GI50 in the experiment with 786-0 renal was 0.0135 µM; in the experiment on BT-549 breast, 0.0119 µM; with EKVX NSCLC, 0.0153 µM; with HL-60(TB) leukemia, < 0.00333 µM; in the experiment on HOP-62 NSCLC, 0.00932 µM; with KM12 colon, < 0.00333 µM. The GI50 was 0.00407 µM in the experiment on NCI-H460 lung, < 0.00333 µM in the experiment on NCI-H522 lung, < 0.00333 µM in the experiment with SK-MEL-5 melanoma and < 0.00333 µM in the experiment with SR leukemia. The TGI with 786-0 renal was 5.53 µM; in the experiment on BT-549 breast, 0.195 µM; in the experiment with EKVX NSCLC, > 33.3 µM; in the experiment with HL-60(TB) leukemia, 0.0104 µM; in the experiment with HOP-62 NSCLC, 5.68 µM; in the experiment with KM12 colon, 4.81 µM. The TGI in the experiment on NCI-H460 lung was determined as 3.78 µM; in the experiment on NCI-H522 lung, 0.00708 µM; in the experiment with SK-MEL-5 melanoma, 0.0927 µM; in the experiment with SR leukemia, 3.77 µM.
